Results published in patent publication US20260138969A1 (Korea Research Institute of Chemical Technology, priority 2023, published 2026).

Tests used:
[1] = test system: MPTP-induced PD mouse model; assay: MPTP-induced PD mouse model: dopamine by LC-MS/MS; assay type: in vivo; details: vs MPTP alone group
Procedure: (§1) Mice at 7 weeks of age were divided into 7 groups as shown in Table 9 below to generate an acute MPTP model and proceed with drug administration: control group+vehicle (G1), MPTP+vehicle (G2), MPTP+Nilotinib 40 mg/kg (G3), MPTP+Example 3 2 mg/kg (G4), MPTP+Example 3 10 mg/kg (G5), MPTP+Example 3 50 mg/kg (G6), and MPTP+Example 2 50 mg/kg (G7). The test drug was administered orally (PO) at 10 ml/kg once daily (QD) from Day 1 to Day 7. The acute MPTP model will be performed at 2-hour intervals in all groups except the control group. […] was administered as intraperitoneal (IP) injection for 4 doses. The control group was given the same amount of 0.9% saline. The Pole test was performed on day 4 (after training on day 2 and day 3). On day 7, all mice were euthanized, and their brains were harvested.
The amount of dopamine was measured by LC-MS/MS analysis using Agilent 1290 (LC) and SCIEX QTARP 6500+ (QQQ) for the striatum and substantia nigra of the extracted brain tissue.

PC12 cells [2] = assay: Neuronal protective efficacy against 6-OHDA (MTT); assay type: cell-based; details: Rattus norvegicus, PC-12, 6-OHDA 40 μM, Control = 100, read-out: cell viability (AVE); for viability at 0.1 µM: compound 0.1 μM; for viability at 0.3 µM: compound 0.3 μM; for viability at 1 µM: compound 1 μM
Procedure: (§2) The neuronal toxicity substances 6-OHDA (6-hydroxydopamine hydrobromide) and MPP+ (1-methyl-4-phenylpyridinium) were purchased from Sigma-Aldrich (Saint Louis, MO, USA) and made into 100 mM DMSO stock. PC12 cells were seeded on 96-well plates with 4 pieces of 1×10 per well and incubated for one day. The cells were pretreated with each concentration of embodied compound for 1 h. Subsequently, 40 μM 6-OHDA and 2 mM MPP^+ were added and incubated for 24 hours, respectively. Subsequently, cell viability was measured using MTT (Invitrogen, MA, USA).

PC12 cells [3] = assay: Neuronal protective efficacy against MPP+ (MTT); assay type: cell-based; details: Rattus norvegicus, PC-12, MPP 2 mM, Control = 100, read-out: cell viability (AVE); for viability at 0.1 µM: compound 0.1 μM; for viability at 0.3 µM: compound 0.3 μM; for viability at 1 µM: compound 1 μM
Procedure: as §2

[4] = test system: α-Syn transgenic Parkinson's disease mouse model; assay: α-Syn transgenic Parkinson's disease mouse model: neurological score (modified Irwin test); assay type: in vivo; details: Example 3 2/10/50 mg/kg, Example 2 2 mg/kg PO QD 5 months; vs TG+carrier (G2)
Procedure: The test drug was administered once daily (QD) via oral administration (PO) with a solution of 5 ml/kg for 5 months from 4 months to 9 months of age. Motor behavior tests (beam test) and neurological scores (modified Irwin test) were performed at 4 months (before administration), 7 months, and 9 months. After the final behavioral test, tissue samples were taken. Weight was measured on the same day once a week from 4 months of age until the end of the study.
Scores were recorded by direct observation of mice in cages for neurological behavioral disorders, except for startle reflex, tail pinch, and righting reflex. To test the startle reflex, a small remote control was used to make loud noises and check behaviors such as jumping, stopping, and blinking quickly. For the […] reflex, each mouse was removed from the cage and placed with its back facing the floor so that the mouse could correct its posture on its own. The tail pinch reflex was tested by gently squeezing the tip of the tail with forceps.
A score of 0 was given if there were normal or no abnormal features such as motor activity, 1 point if mild abnormalities were observed, and 2 to 3 points were given if serious abnormalities were observed. The scores for all observed behaviors for each mouse were added, and the average of the added scores for each group was calculated.

[5] = test system: MPTP-induced PD mouse model; assay: MPTP-induced PD mouse model: TH staining of striatum and substantia nigra; assay type: in vivo; details: for TH levels in the substantia nigra / TH levels in the striatum: vs control group (G1); for TH levels in substantia nigra / TH levels in striatum: PO QD Day 1-7, Example 3 2/10/50 mg/kg, Example 2 50 mg/kg, vs MPTP group G2; for TH levels in striatum: Nilotinib 40 mg/kg
Procedure: as §1
Mice were euthanized with Zoletil administration for collection of tissue samples for staining and analysis of histological sections. Blood was collected from the heart of the mouse and then the residual blood was perfused with phosphate-buffered saline (PBS). For half of the mice (n=6/group), the brain was incised into the striatum, substantia nigra, and the rest of the brain, flash-frozen, and stored at −80° C. The remaining mice (n=6/group) had their brains isolated and immobilized in 4% paraformaldehyde for 24 hours at 4° C., followed by 30% sucrose in phosphate-buffered saline (PBS) containing 0.02% sodium azide and stored at 4° C. for 3 days. Immunohistochemical sections were performed on brain samples embedded with optimal cutting temperature (OCT) compounds. Samples were sectioned to a thickness of 20 μm using Leica CM1950 (Leica Microsystems, Germany) and stored at 4° C. in a preservation solution until staining with antibodies.
After staining the striatum and substantia nigra of the brain and mounting them on microscopic slides, the slides were washed with PBS containing 0.3% Triton X-100 and peroxidase block for 15 min at room temperature. The slides were washed three times with PBS containing 0.3% Triton X-100 and then blocked at RT (room temperature) for 1 hour in a solution containing PBS, 5% normal goat serum, and 0.3% Triton X-100. Tyrosine hydroxylase antibody was diluted at 1:1000 and incubated overnight at 4° C. The slides were washed with PBS solution and incubated for 1 h at RT with secondary antibody. The slides were washed with PBS solution and the sections were placed in the solution to proceed with the DAB (diaminobenzidine) reaction.
The DAB response was monitored under a microscope for 2 to 3 minutes, and the slides were washed with PBS to stop the DAB response, dehydrated, and mounted using xylene. An Olympus microscope (Olympus, SZ61, BX51) was used to visualize TH stained images. The optical density (OD) value of positive TH staining was measured in the striatum and substantia nigra and analyzed using Image J software.

Structure (SMILES)	dopamine concentration in the striatum ([1]; 50 mg/kg PO QD)	dopamine concentration in the substantia nigra ([1]; 50 mg/kg PO QD)	viability at 0.1 µM (PC12 cells [2]) [%]	viability at 0.3 µM (PC12 cells [2]) [%]	viability at 1 µM (PC12 cells [2]) [%]	viability at 0.1 µM (PC12 cells [3]) [%]	viability at 0.3 µM (PC12 cells [3]) [%]	viability at 1 µM (PC12 cells [3]) [%]	neurological score [4]	TH levels in the substantia nigra ([5]; 50 mg/kg PO QD)	TH levels in substantia nigra [5]	TH levels in striatum [5]	dopamine concentration in the substantia nigra ([1]; 2 mg/kg PO QD)	dopamine concentration in the substantia nigra ([1]; 10 mg/kg PO QD)	TH levels in the striatum ([5]; 10 mg/kg PO QD)	TH levels in the substantia nigra ([5]; 10 mg/kg PO QD)	TH levels in the striatum ([5]; 50 mg/kg PO QD)
Cc1cc(F)c(C(=O)Nc2cccc(-n3nnc4c3CCC4)n2)cc1-n1cnc(C2CC2)c1 [Example 2, 5-(4-cyclopropyl-1H-imidazole-1-yl)-N-(6-(5,6-dihydrocyclopenta[d][1,2,3]triazole-1 (4H)-yl)pyridine-2-yl)-2-fluoro-4-methylbenzamide]	significantly increased	significantly increased	88.8	91.5	96.8	83.9	91.7	92.4	significantly reduced the neurological score of TG mice compared to G2	significantly higher than in the control group (G1)	significant increase	significant increase	–	–	–	–	–
Cc1cc(F)c(C(=O)Nc2cccc(-n3nnc4c3CCCC4)n2)cc1-n1cnc(C2CC2)c1 [Example 3, 5-(4-cyclopropyl-1H-imidazole-1-yl)-2-fluoro-4-methyl-N-(6-(4,5,6,7-tetrahydro-1H-benzo[d][1,2,3]triazole-1-yl)pyridine-2-yl)benzamide]	–	–	90	92	92.8	87.4	87.6	89.9	significantly reduced the neurological score of TG mice compared to G2	significantly higher than in the control group (G1)	significant increase	significant increase	significantly increased	significantly increased	significantly higher than in the control group (G1)	significantly higher than in the control group (G1)	significantly higher than in the control group (G1)
